Data taken from patent publication US4921849A, “Injection containing 3-benzoyloxy-1,3,5(10)-estratriene-17-[4-{p-(bis(2-chloroethyl)amino)phe nyl}butanoyloxy)acetate as an active ingredient” (priority 1987, dated 1990).

What was measured:
[1] = tested on: Walker 256 carcino sarcoma; test: Life span of rats bearing Walker 256 carcino sarcoma after injection from the femoral artery; assay type: in vivo, female Wistar rats; conditions: for elongated life time (T/C=test/control): control = physiological saline; for mean survival days (MST): right femoral artery, 8th or 9th day after transplantation
Procedure: A predetermined amount (shown in Table 1) of 3-benzoyloxy-1,3,5(10)-estratriene-17β-[4-{p-(bis(2-chloroethyl)amino)phenyl}butanoyloxy]acetate or adriamycin was added to 6.5 g of LIPIODOL® and the mixture was stirred for 15 minutes at 25° C. to obtain a solution as the injection of each active ingredient. Each solution was put into a sterilized vials.
A walker 256 carcino sarcoma (solid) of about 3 mm square in size was transplanted subcutaneously to the left brachial part and the left femoral part of each of female Wistar rats (the age of 6 weeks and one group consisting of 5 animals) of respective group.
On the 8th or 9th day after the transplantation, each of the injections prepared in Example 1 was injected into each rat of respective testing group from the right femoral artery by a catheter and physiological saline solution or 6.5 g of LIPIODOL® was injected into each rat of the control group or the LIPIODOL group in the same manner as above.
After having observed the state of the test animals, the mean survival days (MST) and the elongated life time (T/C=test/control) were calculated.

Acute toxicity in rats = assay type: in vivo
Procedure: Concerning an acute toxicity (LD50) of the present derivative, even when rats were administered orally with the maximum administrable amount (6,000 mg/kg), no death case has been observed and when rats were injected intraperitoneally in a form of sesame oil solution, its LD50 has been over 3,000 mg/kg. Accordingly, the present derivative is a medicine extremely high in safety. In a mean while, LD50 of LIPIODOL® has been 7,000 mg/kg when it was administered intravenously to rabbits.

Solubility in oils = assay type: physicochemical
estradiol receptor = conditions: cited from earlier work
[2] = cited from earlier work
cells = conditions: cited from earlier work
[3] = oral administration; cited from earlier work

SMILES | elongated life time (T/C=test/control) ([1]; 100 mg in 6.5 g of LIPIODOL) [%] | mean survival days (MST) ([1]; 100 mg in 6.5 g of LIPIODOL) [days] | death cases (acute toxicity) (Acute toxicity in rats; orally, maximum administrable amount 6,000 mg/kg) | LD50 (Acute toxicity in rats; rat, in vivo, ip, intraperitoneally, sesame oil solution) [mg/kg] | solubility in ester of iodinated poppy oil fatty acid (Solubility in oils; ester of iodinated poppy oil fatty acid) | solubility in ordinary oils (Solubility in oils; ordinary oils) | affinity to the estradiol-receptor (estradiol receptor) | stability in vivo [2] | accumulation in cancer cells versus normal cells ([2]; in vivo) | decomposition/conversion within cells (cells) | adsorption rate in intestines [3] | stability in cells (cells) | elongated life time (T/C=test/control) ([1]; 10 mg in 6.5 g of LIPIODOL) [%] | mean survival days (MST) ([1]; 10 mg in 6.5 g of LIPIODOL) [days]
C[C@]12CC[C@@H]3c4ccc(OC(=O)c5ccccc5)cc4CC[C@H]3[C@@H]1CC[C@@H]2OC(=O)COC(=O)CCCc1ccc(N(CCCl)CCCl)cc1 [present derivative, 3-benzoyloxy-1,3,5(10)-estratriene-17-[4-{p-(bis(2-chloroethyl)amino)phenyl}-butanoyloxy]acetate] | 234.3 | 41.0 | no death case | > 3000 | can be uniformly dissolved in the ester | does not completely dissolve in ordinary oils | scarcely any function as an alkylating agent and any affinity to the estradiol-receptor | relatively stable in vivo | accumulates in larger amount in cancer cells than in normal cells | hydrolyzed by an enzyme | low adsorption rate |  |  | 
C[C@]12CC[C@@H]3c4ccc(O)cc4CC[C@H]3[C@@H]1CC[C@@H]2OC(=O)COC(=O)CCCc1ccc(N(CCCl)CCCl)cc1 [KM-2202, 3-hydroxy-1,3,5(10)-estratriene-17-[4-{p-(bis(2-chloroethyl)amino)phenyl}butanoyloxy]-acetate] |  |  |  |  |  |  | has an affinity to the estradiol receptor |  |  | decomposed slowly into estradiol and chlorambucil within cells |  | relatively unstable in cells |  | 
COc1cccc2c1C(=O)c1c(O)c3c(c(O)c1C2=O)C[C@@](O)(C(=O)CO)C[C@@H]3O[C@H]1C[C@H](N)[C@H](O)[C@H](C)O1 [Adriamycin] | < 5.7 | < 1 |  |  |  |  |  |  |  |  |  |  | 140.7 | 24.5
